This experiment relates to fully committed Th1 cells. Description: Secondary repolarisation of sorted IFN-γ (eYFP+) Th1 cells under Th1 conditions in the presence of RAR inhibitor or vehicle. Format: cell-based, mouse. Particulars: IFN-γ (eYFP+) Th1 cells sorted day 7, restimulated under Th1 conditions for 5 days with LE540 (1 μM) vs vehicle (DMSO). The protocol: Experimental conditions were as follows. Naïve CD4^+CD25^negCD44^loCD62L^hi T-cells were isolated by cell sorting by FACSAria (BD) after enrichment with a CD4^+ T-cell negative selection kit (Miltenyi Biotec). T-cell depleted splenocytes were prepared using a CD3^+ microbead selection kit (Miltenyi Biotec) followed by irradiation at 3000 rad. Naïve CD4+ T-cells were cultured for 3 days with irradiated T-cell-depleted splenocytes at a ratio of 1:5 in the presence of 5 μg/ml of anti-CD3 (145-2C11) under Th0 cell conditions (IL-2 100 IU/ml, anti-IL-4 (11B11) and anti-IFN-γ (XMG 1.2), 10 μg/ml each); Th1 cell conditions (100 IU/ml of IL-2, 10 ng/ml of IL-12, and anti-IL-4); Th2 cell conditions (100 IU/ml of IL-2, 10 ng/ml of IL-4, anti-IL-12 (C17.8), and anti-IFN-γ (XMG 1.2); or Th17 cell conditions, 5 ng/ml TGFβ, 20 ng/ml IL-6, 10 ng/ml IL-1β, anti-IL-4, and anti-IFN-γ). Cells were expanded for an additional 3-4 days. Where indicated, 10 ng/ml IFN-γ or 10 μg/ml anti-IFN-γ was added. In secondary repolarisation assays, where specified, LE540 (1 μM) or DMSO (vehicle control) was added to the media. Cytokines were from R&D. Anti-CD3 was from BioXcell and other antibodies were from BD Biosciences. All cell cultures were performed in complete RPMI containing 10% fetal bovine serum (FBS), 55 µM β-mercaptoethanol, HEPES, non-essential amino acids, glutamine, penicillin and streptomycin.
For analysis of cytokine production, cells were restimulated with 100 ng/ml phorbol 12-myristate 13-acetate (PMA) and 500 ng/ml ionomycin in the presence of monensin for 4-5 h at 37° C. in a tissue culture incubator. Cell surface staining was carried out in PBS with 2% FBS. For live cell analysis or cell sorting, dead cells were excluded by staining with SYTOX blue (Invitrogen). […] Data were collected with a LSR Fortessa (BD) and results were analyzed with FlowJo software (Tree Star). […]

The values that follow come from patent US20160317654A1, “COMBINATION THERAPY WITH RAR ALPHA AGONISTS FOR ENHANCING TH1 RESPONSE” (King's College London, priority 2015, published 2016).

`CN1c2cc3c(cc2N=C(c2ccc(C(=O)O)cc2)c2ccc4ccccc4c21)C(C)(C)CCC3(C)C` [LE540]: the “Intracellular IFN-γ expression following PMA and ionomycin stimulation” value (FIG. 12B) is reported as “modest reductions in IFN-γ expression”. In addition, for the setting “flow cytometry, FIG. 4B”, the “Intracellular expression of RORγt” value was “emergence of cells co-expressing RORγt” and the “Intracellular expression of T-bet” value is reported as “down-regulation of T-bet”.
